One assay relates to MCF-7 cells. As to the kind of experiment: Western-Blot analysis of Hsp90 client proteins and Hsp70. Particulars: MCF-7, 36 h. Type of assay: cell-based. How it is done:
MCF-7 cells were pretreated with various concentrations of the test compounds. After stimulation, cells were collected; lysed in lysis buffer [50 mM Tris-Cl, pH 7.6, 150 Mm NaCl, 1 mM EDTA, 1% (m/v) Nonidet P-40 (NP-40), 0.2 mM Phenylmethanesulfonyl fluoride (PMSF), 0.1 mM NaF and 1.0 mM dithiothreitol (DTT)], and the supernatant was obtained after centrifugation at 13,000× g for 10 min at 4°C. The concentration of protein in the supernatants was measured by the bicinchoninic acid (BCA) assay. Then equal amounts of protein (50 μg) were separated by 8% or 10% sodium dodecyl sulfate polyacrylamide gel electrophoresis (SDS-PAGE) and transferred onto the PVDF membranes (Millipore, Billerica, MA). The blots were incubated with specific antibodies against the indicated primary antibodies overnight at 4°C followed by IRDyeTM800-conjugated secondary antibody for 1 h at 37°C. Detection was performed by the Odyssey Infrared Imaging System (LI-COR; Lincoln, NE). All blots were stripped and incubated with polyclonal anti-β-actin antibody to ascertain equal loading of proteins.

Assay [1] deals with HCT116. Description: Anti-proliferation MTT assay. Type of assay: cell-based. Particulars: Homo sapiens, HCT-116, 48 h. How it is done:
(§1) Cell viabilities were measured by a colorimetric assay using 3-(4, 5-dimethylthiaz-ol-2-yl)-2,5-diphenyltetrazoliumbromide (MTT, Sigma, Ltd.) as described previously. Experiments were carried out in triplicate in a parallel manner for each concentration of target compounds and the results were presented as mean ± SE. Control cells were given only culture media. After incubation for 48 h, absorbance (A) was measured at 570 nm. Survival ratio (%) was calculated using the following equation: survival ratio (%) = (Atreatment/Acontrol) × 100%.
A general note: Formazan colour is commonly taken as a measure of viable cells.

A further assay has as its system MDA-MB-231. As to the kind of experiment: Anti-proliferation MTT assay. It counts as cell-based. Particulars: Homo sapiens, MDA-MB-231, 48 h. How it is done:
as §1

Assay [2] deals with MCF-7. Description: Anti-proliferation MTT assay. Type of assay: cell-based. The settings on record: Homo sapiens, MCF7, 48 h. How it is done:
as §1

A further assay deals with A549. Description: Anti-proliferation MTT assay. It counts as cell-based. The settings on record: Homo sapiens, A549, 48 h. How it is done:
as §1

A further assay concerns SK-BR-3. As to the kind of experiment: Anti-proliferation MTT assay. It counts as cell-based. The settings on record: Homo sapiens, SK-BR-3, 48 h. How it is done: as §1
In a further assay the test system is HepG2. Description: Anti-proliferation MTT assay. Type of assay: cell-based. Particulars: Homo sapiens, HepG2, 48 h. How it is done: as §1
Assay [3] relates to HCT116. As to the kind of experiment: Cell morphological assessment (DAPI staining, apoptosis). The settings on record: HCT116, 2, 5, 10 μM, 24 h. Type of assay: cell-based. How it is done: (§2) To detect morphological evidence of apoptosis, HCT116, MCF-7 and SKBR3 cell nuclei were visualized following DNA staining with the fluorescent dye DAPI. Briefly, cells were seeded at a concentration of 1×10^5 cells/well in 6-well tissue culture plates and treated with indicated concentration of S13. At the end of incubation, the morphology of cells was monitored under an inverted light microscope. Cells were then fixed with 4% paraform for 20 min and washed with PBS, and then incubated with DAPI (1 μg/ml) for 10 min. After washed with PBS, cells were observed using fluorescent microscopy (Olympus, Japan) with a peak excitation wave length of 340 nm.

In assay [4] the test system is MCF-7. The assay is described as above. Type of assay: cell-based. How it is done: as §2
The test system of a further assay is SKBR3. The description is as above. Type of assay: cell-based. Particulars: SK-BR3, 2, 5, 10 μM, 24 h. How it is done: as §2
Another assay deals with T1, Hsp90 (Homo sapiens, UniProt P07900).
T1 construct: The region encoding full-length Hsp90 was subcloned into pET28a; inferred from the pET28a vector and Ni-NTA purification; made in house; host or cells: E. coli
As to the kind of experiment: ATP hydrolysis inhibition, ADP Hunter Plus (ADP fluorescence) assay. It counts as biochemical. The settings on record: by ADP fluorescence assay. How it is done: The first and last rows of the 96-well plate contained the appropriate concentration of DMSO were used as blank control. ATP was dissolved in the assay buffer to give a stock concentration of 2.5 mM and stored at room temperature. A 10 μL aliquot of ATP solution was added to each well to give a final assay concentration of 1 mM. Before the usage, Hsp90 protein was thawed on ice and suspended in chilled assay buffer to a stock concentration of 0.45 mg/mL, and the solution was kept on ice. […] The plates were shaken for approximately 2 min and incubated for 3 h at 37°C. The Discover RX ADP Hunter^TM Plus Assay kit (Discoverx, Fremont, CA) was used following the manufacturer's instructions. ATPase reactions were carried out after 3 h at 37°C temperature in presence of different concentrations of compounds. ADP generation was measured using Varioskan multimode microplate spectrophotometer (540 nm excitation and 620 nm emission). […] The background reaction rate was measured in a reaction lacking enzyme or substrate and subtracted from the experimental rates.

The target in a further assay is T2, Hsp70 (Homo sapiens, UniProt P0DMV8).
T2 construct: purchased Enzo Life science ALX-201-214-C025
T2 sequence (P0DMV8 whole entry): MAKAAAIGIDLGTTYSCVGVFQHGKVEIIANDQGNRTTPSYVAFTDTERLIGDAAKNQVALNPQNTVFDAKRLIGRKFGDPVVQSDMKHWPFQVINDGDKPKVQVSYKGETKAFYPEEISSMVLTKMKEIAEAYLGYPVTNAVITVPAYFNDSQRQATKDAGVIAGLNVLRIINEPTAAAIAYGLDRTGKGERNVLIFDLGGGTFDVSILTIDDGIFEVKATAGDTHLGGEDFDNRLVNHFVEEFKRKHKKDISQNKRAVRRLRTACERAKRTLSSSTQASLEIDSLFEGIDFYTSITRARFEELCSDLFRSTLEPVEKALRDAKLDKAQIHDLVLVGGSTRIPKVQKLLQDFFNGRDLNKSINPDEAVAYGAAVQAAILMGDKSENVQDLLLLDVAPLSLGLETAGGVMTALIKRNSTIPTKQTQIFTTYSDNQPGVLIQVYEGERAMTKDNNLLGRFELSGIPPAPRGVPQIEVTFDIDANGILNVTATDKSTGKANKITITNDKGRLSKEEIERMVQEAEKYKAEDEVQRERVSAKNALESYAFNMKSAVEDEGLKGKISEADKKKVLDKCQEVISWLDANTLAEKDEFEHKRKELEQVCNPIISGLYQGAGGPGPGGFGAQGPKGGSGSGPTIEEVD
As to the kind of experiment: Hsp70 ATPase activity assay (ADP Hunter Plus). Type of assay: biochemical. From the text: The following materials were used for the biological evaluation: The PET-28a HSP90 expression vector was constructed. The Ni^2+-nitrilo-triacetic acid (NTA) agarose was purchased from General Electric (USA). […] Isopropyl-1-thio-d-galactopyranoside (IPTG) was purchased from Sigma (St. Lousi. MO). Antibodies of β-Actin, Hsp70, Hsp90, c-Raf, Akt, Src, Phospho-Src, ERK and Her-2 were purchased from Cell Signaling Technology (Danvers, MA). Anti-p-Akt(S473) was purchased from Signalway Antibody (Baltimore, MD). HIF-1α antibody was purchased from R&D systems. The stock solution of Hsp90 was prepared in a 20 mM Tris-Cl buffer with a pH 7.4, and concentration was fixed at 5.0 μM. […] The screened out compounds were purchased from SPECS and dissolved in DMSO (Sigma, St. Louis, MO) to make a final concentration of 10^−2 mol/L and were stored at −20°C. […] The water used in the experiments was thrice-distilled and all other materials were of analytical reagent grade.
Hsp70 ATPase activity was measured using Discover RX ADP Hunter^TM Plus Assay kit assay as descripted in the manufacturer's instructions. Breifly, Hsp70 (3 μM) was incubated with 1 mM ATP in 100 mM Tris pH 7.4 at 37°C for 3 h in the presence or absence of various concentrations of test compounds. ADP generation was measured using Varioskan multimode microplate spectrophotometer (540 nm excitation and 620 nm emission). Fluorescence intensity values measured for Hsp70 without any testing compound was assumed as 100% of enzyme activity. The background reaction rate was measured in a reaction lacking enzyme or substrate and subtracted from the experimental rates.

Take `COc1ccccc1N1CCN(CC(O)COCCOc2ccc(Br)cc2)CC1` (stereo not drawn) [Compound S13]: the Hsp70 expression entry in the assay with MCF-7 cells is on record as “up-regulates”. Further, the “depletion of Hsp90-dependent client proteins (Her2, Src, Akt, ERK, c-Raf, Hif-1α)” value with MCF-7 cells is “concentration-dependent”. Further, the IC50 worked out at 3.63 µM in the assay with HCT116 [1]; 14.6 µM with MDA-MB-231; 2.01 µM in the assay on MCF-7 [2]; 0.83 µM with A549; 3.32 µM in the assay on SK-BR-3; 96.6 µM with HepG2. Besides, the IC50 was 2.83 µM at Hsp90 and 43.8 ± 4.38 µM at Hsp70 (ADP Hunter Plus assay). Further, the apoptosis-induced effects result in the assay with HCT116 [3] is “dose-dependent”; with MCF-7 [4] (MCF-7, 2, 5, 10 μM, 24 h), “dose-dependent”; in the assay with SKBR3, “dose-dependent”. Further, the apoptosis induced entry with MCF-7 [4] (10 μM, MCF-7 cells) was “over 50%”. Also, the “selectivity HSP90 over HSP70” value on Hsp70 (ratio of IC50 HSP70 / HSP90, ADP fluorescence assay) was “over 15 times”.

The term IC50 denotes the concentration needed to halve the response being measured.

The values are drawn from publication PMC3615092, “Identification, Design and Bio-Evaluation of Novel Hsp90 Inhibitors by Ligand-Based Virtual Screening” (PLoS ONE, 2013).
